{
  "source": "patent US20250299772A1",
  "about": "“METHOD FOR GENERATION OF CHEMICAL DERIVATIVES AGAINST TARGET PROTEIN TO BUILD AI DRUG PLATFORM” (SYNTEKABIO, INC., priority 2024, published 2025)",
  "target": "protein A (a kinase)",
  "experiment": "Inhibition of protein A kinase activity (33P-ATP peptide phosphorylation, filter, scintillation counting)",
  "type": "biochemical",
  "settings": "for IC50: Table 2, 10 μM [gamma-33P]-ATP, 10 μM peptide substrate, 40 minutes at room temperature; for pIC50 (experimental): Table 3, given with negative sign",
  "method": "The hit compound derivatives synthesized as real compounds through Example 3 were evaluated for ability to inhibit the activity of protein A (a kinase).\nSpecifically, […] of protein A was incubated along with 8 mM MOPS (pH 7.0), 0.2 mM EDTA, 10 mM magnesium acetate, 10 μM [gamma-33P]-ATP, and 10 μM […], which is a phosphorylation target peptide. After incubation at room temperature for 40 minutes, the reaction was terminated by adding phosphoric acid to a final concentration of 0.5%. The reaction mixture was spotted onto a filter, then washed four times with 0.425% phosphoric acid for 4 minutes each. After washing once with methanol, the sample was dried and measured for radioactivity (scintillation counting) to assess phosphorylation (i.e., […](p)EDEEE peptide detection).",
  "data": [
    {"smiles": "CC#CC(=O)Nc1cccc(-c2cc(NC(=O)c3cc4c(s3)CCNC4)[nH]n2)c1", "note": "[Compound D1010]", "values": [
      {"measurement": "IC50", "value": 31, "unit": "nM"},
      {"measurement": "pIC50 (experimental)", "value": 7.51}
    ]},
    {"smiles": "C#CC(=O)Nc1cccc(-c2cc(NC(=O)c3cc4ncc(O)nc4s3)[nH]n2)c1", "note": "[Compound D0137]", "values": [
      {"measurement": "IC50", "value": 40, "unit": "nM"},
      {"measurement": "pIC50 (experimental)", "value": 7.4}
    ]},
    {"smiles": "CC#CC(=O)Nc1cccc(-c2cc(NC(=O)c3cc4cc(OC)ccc4o3)[nH]n2)c1", "note": "[Compound D0069]", "values": [
      {"measurement": "IC50", "value": 30, "unit": "nM"},
      {"measurement": "pIC50 (experimental)", "value": 7.52}
    ]},
    {"smiles": "CC#CC(=O)Nc1cccc(-c2cc(NC(=O)c3cc4c(s3)CCOC4)[nH]n2)c1", "note": "[Compound D1008]", "values": [
      {"measurement": "IC50", "value": 19, "unit": "nM"},
      {"measurement": "pIC50 (experimental)", "value": 7.72}
    ]},
    {"smiles": "C#CC(=O)Nc1cccc(-c2cc(NC(=O)c3cc4ccc(O)cc4o3)[nH]n2)c1", "note": "[Compound D0139]", "values": [
      {"measurement": "IC50", "value": 22, "unit": "nM"},
      {"measurement": "pIC50 (experimental)", "value": 7.66}
    ]},
    {"smiles": "C#CC(=O)Nc1cccc(-c2cc(NC(=O)c3cc4nccnc4s3)[nH]n2)c1", "note": "[Compound D0101]", "values": [
      {"measurement": "IC50", "value": 13, "unit": "nM"},
      {"measurement": "pIC50 (experimental)", "value": 7.89}
    ]},
    {"smiles": "C#CC(=O)Nc1cccc(-c2cc(NC(=O)c3cc4ncc(C(=O)O)nc4s3)[nH]n2)c1", "note": "[DM009]", "values": [
      {"measurement": "IC50", "value": 7, "unit": "nM"},
      {"measurement": "pIC50 (experimental)", "value": 8.15}
    ]},
    {"smiles": "O=C(Nc1cc(-c2cccc(NS(=O)(=O)N3CCOCC3)c2)n[nH]1)c1cc2nccnc2s1", "note": "[Compound D0025]", "values": [
      {"measurement": "IC50", "value": 62, "unit": "nM"},
      {"measurement": "pIC50 (experimental)", "value": 7.21}
    ]},
    {"smiles": "O=C(Nc1cc(-c2cccc(NS(=O)(=O)N3CCOCC3)c2)n[nH]1)c1cccc2ncsc12", "note": "[Compound D0083]", "values": [
      {"measurement": "IC50", "value": 129, "unit": "nM"},
      {"measurement": "pIC50 (experimental)", "value": 6.89}
    ]},
    {"smiles": "C#CC(=O)Nc1cccc(-c2cc(NC(=O)c3cc4ncc(C(N)=O)nc4s3)[nH]n2)c1", "note": "[DM010]", "values": [
      {"measurement": "IC50", "value": 10, "unit": "nM"},
      {"measurement": "pIC50 (experimental)", "value": 8}
    ]},
    {"smiles": "C#CC(=O)Nc1cccc(-c2cc(NC(=O)c3cc4ccc(O)cc4o3)[nH]n2)c1", "note": "[Compound D0135]", "values": [
      {"measurement": "IC50", "value": 63, "unit": "nM"},
      {"measurement": "pIC50 (experimental)", "value": 7.2}
    ]},
    {"smiles": "C#CC(=O)Nc1cccc(-c2cc(NC(=O)c3cc4c(s3)CCOC4)[nH]n2)c1", "note": "[Compound D0157]", "values": [
      {"measurement": "IC50", "value": 4, "unit": "nM"},
      {"measurement": "pIC50 (experimental)", "value": 8.4}
    ]},
    {"smiles": "CC(C)(C)C(=O)Nc1cccc(-c2cc(NC(=O)c3nc4cccnc4s3)[nH]n2)c1", "note": "[Compound D0065]", "values": [
      {"measurement": "IC50", "value": 119, "unit": "nM"},
      {"measurement": "pIC50 (experimental)", "value": 6.92}
    ]},
    {"smiles": "C#CC(=O)Nc1cccc(-c2cc(NC(=O)c3ccc4nonc4c3)[nH]n2)c1", "note": "[Compound D0054]", "values": [
      {"measurement": "IC50", "value": 26, "unit": "nM"},
      {"measurement": "pIC50 (experimental)", "value": 7.58}
    ]},
    {"smiles": "CC#CC(=O)Nc1cccc(-c2cc(NC(=O)c3cc4c(s3)CC(=O)NC4)[nH]n2)c1", "note": "[Compound D1011]", "values": [
      {"measurement": "IC50", "value": 8, "unit": "nM"},
      {"measurement": "pIC50 (experimental)", "value": 8.1}
    ]}
  ]
}
